Structures can show the parent of a compound that is named as a salt.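 Where inhibition never reached the appropriate level, the endpoint shown equals the highest concentration tested. Otherwise, values were interpolated linearly from a five-concentration, 48-hour dose response in 96-well plates. Here, GI50 denotes the concentration required for 50% inhibition of growth.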 The source made the active and inactive calls. No stated cut-off is given here; in the data, active = GI50 up to about 1.1 µM and inactive = higher.
What was measured:
Assay in all cases: inhibition of tumour cell growth, NCI panel, 48 h
786-0 = tested on: 786-0
ACHN = tested on: ACHN
CCRF-CEM = tested on: CCRF-CEM
HCT-116 = tested on: HCT-116
HL-60 = tested on: HL-60
K562 = tested on: K562
MCF7 = tested on: MCF7
MDA-N = tested on: MDA-N
MOLT-4 = tested on: MOLT-4
NCI-H226 = tested on: NCI-H226
OVCAR-3 = tested on: OVCAR-3
PC-3 = tested on: PC-3
RPMI-8226 = tested on: RPMI-8226
SF-295 = tested on: SF-295
SF-539 = tested on: SF-539
SK-MEL-2 = tested on: SK-MEL-2
SN12C = tested on: SN12C
T47D = tested on: T47D
UO-31 = tested on: UO-31

SMILES	GI50 (786-0)	GI50 (ACHN)	GI50 (CCRF-CEM)	GI50 (HCT-116)	GI50 (HL-60)	GI50 (K562)	GI50 (MCF7)	GI50 (MDA-N)	GI50 (MOLT-4)	GI50 (NCI-H226)	GI50 (OVCAR-3)	GI50 (PC-3)	GI50 (RPMI-8226)	GI50 (SF-295)	GI50 (SF-539)	GI50 (SK-MEL-2)	GI50 (SN12C)	GI50 (T47D)	GI50 (UO-31)
O=C1c2cccc([N+](=O)[O-])c2C(=O)N1c1ncn[nH]1	58.1 µM (inactive)	> 100 µM (inactive)	> 100 µM (inactive)	> 100 µM (inactive)	> 100 µM (inactive)	> 100 µM (inactive)	> 100 µM (inactive)	> 100 µM (inactive)	> 100 µM (inactive)	81.8 µM (inactive)	> 100 µM (inactive)	> 100 µM (inactive)	> 100 µM (inactive)	51.5 µM (inactive)	0.822 µM (active)	41.2 µM (inactive)	> 100 µM (inactive)	> 100 µM (inactive)	> 100 µM (inactive)
O=C1C(Cl)C(c2cc3cc(Br)ccc3nc2Cl)N1c1ccc(Cl)cc1 (stereo unspecified)	4.65 µM (inactive)	4.5 µM (inactive)	3.08 µM (inactive)	5.31 µM (inactive)	6.95 µM (inactive)	5.81 µM (inactive)	3.74 µM (inactive)	5.53 µM (inactive)	3.89 µM (inactive)	4.26 µM (inactive)	5.41 µM (inactive)	5.69 µM (inactive)	5.21 µM (inactive)	9.68 µM (inactive)	4.33 µM (inactive)	4.37 µM (inactive)	4.45 µM (inactive)	6.65 µM (inactive)	0.815 µM (active)
N=C(N)N/N=C/c1c(-c2ccc([N+](=O)[O-])cc2)nc2sc(Cl)cn12	0.212 µM (active)	1.27 µM (inactive)	0.277 µM (active)	0.223 µM (active)	1.38 µM (inactive)	0.239 µM (active)	0.52 µM (active)	0.54 µM (active)	0.247 µM (active)	1.76 µM (inactive)	1.27 µM (inactive)	1.12 µM (active)	1.32 µM (inactive)	1.17 µM (inactive)	1.89 µM (inactive)	0.513 µM (active)	1.31 µM (inactive)	0.92 µM (active)	0.979 µM (active)
COc1ccc(C2SC(=N)Nc3c2c(C)nn3C(=O)c2ccc(Cl)cc2)cc1 (stereo unspecified)	> 10 µM (inactive)	> 10 µM (inactive)	> 10 µM (inactive)	> 10 µM (inactive)	> 10 µM (inactive)	> 10 µM (inactive)	> 10 µM (inactive)	> 10 µM (inactive)	> 10 µM (inactive)	> 10 µM (inactive)	> 10 µM (inactive)	> 10 µM (inactive)	> 10 µM (inactive)	> 10 µM (inactive)	> 10 µM (inactive)	> 10 µM (inactive)	> 10 µM (inactive)	> 10 µM (inactive)	–
CNc1c2cccc(C)c2nc2c(C(=O)NCCN(C)C)cccc12	0.104 µM (active)	< 0.024 µM (active)	0.0374 µM (active)	0.0377 µM (active)	0.0847 µM (active)	0.0249 µM (active)	< 0.045 µM (active)	0.0841 µM (active)	< 0.0208 µM (active)	0.116 µM (active)	0.214 µM (active)	0.158 µM (active)	0.0604 µM (active)	0.0586 µM (active)	–	0.309 µM (active)	0.0282 µM (active)	0.162 µM (active)	0.2 µM (active)
O=C(O)C1=C(C(=O)O)N(c2ccncc2)C(c2ccco2)=CC1c1ccccc1[N+](=O)[O-] (stereo unspecified)	2.04 µM (inactive)	1.72 µM (inactive)	2.69 µM (inactive)	1.83 µM (inactive)	2.88 µM (inactive)	2.85 µM (inactive)	2.65 µM (inactive)	5.56 µM (inactive)	3.44 µM (inactive)	9.59 µM (inactive)	8.17 µM (inactive)	13.4 µM (inactive)	2.79 µM (inactive)	12.2 µM (inactive)	2.11 µM (inactive)	17.8 µM (inactive)	13.1 µM (inactive)	7.82 µM (inactive)	8.26 µM (inactive)
CN(C)CCOC(c1ccccc1)c1ccccc1 [DIPHENHYDRAMINE HYDROCHLORIDE]	> 100 µM (inactive)	> 100 µM (inactive)	> 100 µM (inactive)	> 100 µM (inactive)	> 100 µM (inactive)	> 100 µM (inactive)	> 100 µM (inactive)	> 100 µM (inactive)	> 100 µM (inactive)	> 100 µM (inactive)	> 100 µM (inactive)	> 100 µM (inactive)	84.3 µM (inactive)	–	–	72.4 µM (inactive)	> 100 µM (inactive)	> 100 µM (inactive)	> 100 µM (inactive)
CCCCCC(CO)C(O)(C(F)(F)F)C(F)(F)F (stereo unspecified)	> 10 µM (inactive)	> 10 µM (inactive)	–	> 10 µM (inactive)	> 10 µM (inactive)	> 10 µM (inactive)	> 10 µM (inactive)	> 10 µM (inactive)	> 10 µM (inactive)	> 10 µM (inactive)	> 10 µM (inactive)	> 10 µM (inactive)	> 10 µM (inactive)	> 10 µM (inactive)	> 10 µM (inactive)	> 10 µM (inactive)	> 10 µM (inactive)	> 10 µM (inactive)	–
